Test results as given in patent publication US11905417B2, “Anthraquinone compound, liquid crystal composition for dimming including said compound, and dimming element” (Nippon Kayaku Kabushiki Kaisha, priority 2020, dated 2024).

Key:
[1] = Evaluation of solubility of compounds in liquid crystal material (maximum dissolution amount, visual observation); assay type: physicochemical; conditions: in liquid crystal material (cyanobiphenyl/terphenyl mixture), room temperature, 0.5% steps, tested up to about 4.5% by mass
Experimental: (§1) When a uniform composition with no insoluble matter was obtained, a procedure of further adding 0.003 parts of the compound represented by No. 2, stirring the mixture at room temperature for 1 hour, and then visually observing the appearance of the composition was repeated until a dissolution amount (see the following) reached about 4.5% by mass. The solubility of the compound represented by No. 2 in the liquid crystal material was evaluated by the maximum addition amount at which a uniform composition with no insoluble matter was obtained.
When a uniform composition with no insoluble matter was obtained even after 0.024 parts of the compound were added, the maximum dissolution amount was provisionally determined to be “about 4.5% by mass”.

[2] = Evaluation of contrast of compositions at maximum dissolution amount encapsulated in a cell (C=Ky/Kz at λmax); conditions: absorption peak wavelength of the composition in the cell
Source text: The compositions obtained in Examples 3 and 4 and Comparative Examples 6 to 10 were each encapsulated in an element made of two upper and lower glass substrates each having a transparent electrode with an inter-substrate gap of 15 μm, in which the surface of each glass substrate in contact with a liquid crystal was rubbed with a polyamide-based resin and was subjected to a homogeneous orientation treatment. When no voltage was applied in the element subjected to the orientation treatment, the liquid crystal was in a homogeneously oriented state, and dye molecules were also in the same orientation according to the host liquid crystal.
Each of the uniform compositions with no insoluble matter, which were obtained in the above-mentioned “Evaluation of Solubilities of Compounds of Examples according to Present Invention and Compounds of Comparative Examples in Liquid Crystal Material” and which were each made in the maximum dissolution amount, was encapsulated in a cell. In the cell in which each of the uniform compositions was encapsulated, a transmittance (Ky) of linearly polarized light parallel to the orientation direction and a transmittance (Kz) of polarized light perpendicular to the orientation direction were measured, and a contrast (C) at its absorption peak wavelength (λmax) was determined from the following expression. C=Ky/Kz

[3] = Evaluation of solubility of compounds in liquid crystal material, photocurable compound, and photopolymerization initiator; assay type: physicochemical; conditions: room temperature, 0.5% steps, tested up to about 3.5% by mass
Experimental: as §1, with “0.005” for “0.003”, “3.5%” for “4.5%”, “material, the photocurable compound, and the photopolymerization initiator” for “material”
When a uniform composition with no insoluble matter was obtained even after 0.030 parts of the compound were added, the maximum dissolution amount was provisionally determined to be “about 3.5% by mass”.

Compound	Maximum dissolution amount [1]	λmax(nm) [2]	Maximum dissolution amount [3]
CC(C)(C)c1ccc(Sc2cccc3c2C(=O)c2cccc(Sc4ccc5ccccc5c4)c2C3=O)cc1 [Formula(A)]	1.0% by mass	462 nm	0.5% by mass
CC(CC(=O)Oc1ccc(Sc2cccc3c2C(=O)c2cccc(Sc4ccc(OC(=O)CC(C)CC(C)(C)C)cc4)c2C3=O)cc1)CC(C)(C)C (stereo not drawn) [Formula(D)]	2.0% by mass	462 nm	1.0% by mass
CCCCCC(C)CCC(=O)Oc1ccc(Sc2cccc3c2C(=O)c2cccc(Sc4ccc(OC(=O)CCC(C)CCCCC)cc4)c2C3=O)cc1 (stereo not drawn) [Formula(E)]	2.0% by mass	460 nm	1.0% by mass
CCCCCCCCC(CCCCCC)C(=O)Oc1ccc(Sc2cccc3c2C(=O)c2cccc(Sc4ccc(OC(=O)C(CCCCCC)CCCCCCCC)cc4)c2C3=O)cc1 (stereo not drawn) [No.2]	4.5% by mass	460 nm	3.5% by mass
CCCCC(CC)C(=O)Oc1ccc(Sc2cccc3c2C(=O)c2cccc(Sc4ccc(OC(=O)C(CC)CCCC)cc4)c2C3=O)cc1 (stereo not drawn) [No.3]	3.5% by mass	462 nm	3.5% by mass
